Test system: mixed fungal spore suspension of Alternaria alternata, Aureobasidium pullulans, Cladosporium herbarum, Phoma violacea, and Stemphylium dendriticum
Test: Evaluation as a paint film fungicide (acrylic emulsion paint on wooden test pieces, spray inoculated)
Format: cell-based
Conditions: 25°C, four weeks, two scores per cell; for Fungal Growth L2: L2 (leached for two days); for Fungal Growth UL: UL (test pieces not leached); for Fungal Growth L1: L1 (leached with water spray for one day)
Experimental: In the following examples, the compositions obtained were subjected to microbiological evaluation as paint film fungicides. The compositions were also tested for anti-algal properties. The microbiological testing was effected as follows: The products were tested for activity against fungi which were one or more of Alternaria alternata, Aureobasidum pullulans, Cladosporium herbarum, Phoma violacea and Stemphylium dendriticum.
The compositions to be tested were obtained as described in Examples 1 to 6 and the Comparative Examples. The compositions were added as a solid blend to samples of an exterior acrylic emulsion paint (based on Revacryl 1A latex at pH 9) in glass bottles and mixed to give final active ingredient levels in the paint of 1.0, 0.5 and 0.25% w/v.
The bottles containing paint plus biocide composition were sealed and stored at 40°C for three days.
Small wooden test pieces were prepared for each paint composition by priming and then brushing on two full even coats.
One set of the coated test pieces was stored at ambient temperature in the dark. A further set of coated test pieces was placed in a leaching device in which the test pieces were sprayed with water for one day and the test pieces were removed from the leaching device and dried. Yet a further set of coated test pieces was subjected to leaching for two days.
The coated test pieces were then transferred to a high humidity chamber. Each test piece was then spray inoculated with a mixed fungal spore suspension of Alternaria alternata, Aureobasidium pullulans, Cladosporium herbarum, Phoma violacea, and Stemphylium dendriticum.
Incubation was carried out at 25°C for four weeks. After this period the paint films were examined for fungal growth by naked eye and by stereo optical microscope.
The compositions of Examples 1 to 6 and the Comparative Examples were evaluated as paint film fungicides using the technique described previously herein. For comparative purposes paints containing only tetrachloroisophthalonitrile (NC); 3-(3,4-dichlorophenyl)-1,1-dimethylurea (DU); 2,3,5,6-thetrachloro-4-(methylsulphonyl) pyridine (DS); di-iodomethyl-4-methylphenylsulphone (AM); or zinc oxide (ZO) were also evaluated under the same conditions.

[1] = 1.0% w/v active ingredient in paint
[2] = 0.25% w/v active ingredient in paint
[3] = 0.5% w/v active ingredient in paint

| SMILES | Fungal Growth L2 [1] | Fungal Growth UL [1] | Fungal Growth L1 [2] | Fungal Growth L2 [2] | Fungal Growth UL [2] | Fungal Growth L1 [3] | Fungal Growth L2 [3] | Fungal Growth UL [3] | Fungal Growth L1 [1] |
| --- | --- | --- | --- | --- | --- | --- | --- | --- | --- |
| CN(C)C(=O)Nc1ccc(Cl)c(Cl)c1 [DU, 3-(3,4-dichlorophenyl)-1,1-dimethylurea] | 5,5 | 5,5 |  |  |  |  |  |  |  |
| N#Cc1c(Cl)c(Cl)c(Cl)c(C#N)c1Cl [NC, tetrachloroisophthalonitrile] | 4,5 | 0,0 | 4,4 | 5,5 | 3,4 | 4,5 | 3,5 | 2,3 | 2,5 |
| Cc1ccc(S(=O)(=O)C(I)I)cc1 [AM, di-iodomethyl-4-methylphenylsulphone] | 0,0 | 0,0 |  | 4,4 | 0,0 |  | 1,2 | 0,0 |  |
| CS(=O)(=O)c1c(Cl)c(Cl)nc(Cl)c1Cl [DS, 2,3,5,6-tetrachloro-4-(methylsulphonyl)pyridine] | 1,0 | 0.1 |  | 5,4 | 2,2 |  | 2,3 | 1,1 |  |

— patent EP0345955B1, “Anti-microbial composition and use thereof” (IMPERIAL CHEMICAL INDUSTRIES PLC, priority 1988, dated 1989)
